From patent US20240109900A1, “AZABICYCLIC SHP2 INHIBITORS” (IRBM S.P.A., priority 2021, published 2024) come the findings set out here.

Test [1] has as its system ERK phosphorylation in KYSE-520 cells. The test can be described thus: Phospho-ERK cellular assay. The format is cell-based. Particulars: KYSE-520 cells, 2 h at 37° C., phospho-ERK1/2 (Thr202/Tyr204) TR-FRET, read-out: PERK IC50. The gist of the method: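 TR-FRET read-out of ERK1/2 Thr202/Tyr204 phosphorylation was taken after overnight antibody incubation at room temperature. Before that, KYSE-520 cells were treated 2 h at 37 °C with compound dilutions and lysed 30 min. Percent inhibition relative to vehicle and cell-free wells was fitted four-parametrically to give IC50.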

Test [2] addresses SHP-2 enzyme (Met1-Leu525) (Homo sapiens (Human), UniProt Q06124). Description: SHP2 inhibition enzymatic assay. The format is biochemical. Particulars: 0.5 nM SHP-2 activated by 500 nM IRS1 peptide, 75 μM DiFMUP substrate; read-out: SHP2wt-IC50. The gist of the method: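 Compounds were preincubated 30 min with 0.5 nM SHP-2 (Met1-Leu525) plus 500 nM IRS1 activating peptide (pH 7.2 HEPES, 5 mM DTT), then 75 μM DiFMUP substrate reacted 30 min at room temperature. After bpV quench, DiFMUP fluorescence gave % inhibition; four-parameter logistic fit yielded IC50.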

Where two headings read alike, the source gives them in different places. Bounds are passed on as bounds.

Sequence of SHP-2 enzyme (Met1-Leu525) (Q06124 1-525): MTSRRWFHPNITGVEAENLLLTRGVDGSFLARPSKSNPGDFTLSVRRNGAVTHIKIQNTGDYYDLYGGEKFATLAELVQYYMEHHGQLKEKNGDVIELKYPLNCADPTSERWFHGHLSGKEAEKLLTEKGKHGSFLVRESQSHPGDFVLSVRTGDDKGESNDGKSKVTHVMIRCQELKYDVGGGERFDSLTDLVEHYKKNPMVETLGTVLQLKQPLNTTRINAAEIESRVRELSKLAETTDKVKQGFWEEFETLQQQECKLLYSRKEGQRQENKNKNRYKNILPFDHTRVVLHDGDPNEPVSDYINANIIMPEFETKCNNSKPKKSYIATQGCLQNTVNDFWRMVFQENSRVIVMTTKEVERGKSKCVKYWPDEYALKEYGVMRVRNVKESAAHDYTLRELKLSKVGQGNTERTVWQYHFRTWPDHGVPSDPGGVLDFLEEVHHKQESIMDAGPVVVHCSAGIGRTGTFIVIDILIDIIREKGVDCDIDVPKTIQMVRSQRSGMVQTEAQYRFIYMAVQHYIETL

The IC50 is the concentration that inhibits the measured activity by half. For the compound `CNC[C@]1(c2nc(C)cs2)[C@@H]2CN(c3cnc4c(-c5ccc6nn(C)cc6c5Cl)n[nH]c4n3)C[C@@H]21` [Example 484, 1-((1R,5S,6r)-3-(3-(4-chloro-2-methyl-2H-indazol-5-yl)-1H-pyrazolo[3,4-b]pyrazin-6-yl)-6-(4-methylthiazol-2-yl)-3-azabicyclo[3.1.0]hexan-6-yl)-N-methylmethanamine], the IC50 was less than 1000 nM in test [1] (Homo sapiens, KYSE-520, 2 h) and less than 500 nM in test [2].
`Cn1cc2c(Cl)c(-c3n[nH]c4nc(N5CC[C@@H]6[C@H](C5)[C@@]6(CN)c5ccon5)cnc34)ccc2n1` [Example 123, ((1S,6R,7S)-3-(3-(4-chloro-2-methyl-2H-indazol-5-yl)-1H-pyrazolo[3,4-b]pyrazin-6-yl)-7-(isoxazol-3-yl)-3-azabicyclo[4.1.0]heptan-7-yl)methanamine]: the half-inhibitory concentration (IC50) was less than 1000 nM in test [1] (Homo sapiens, KYSE-520, 2 h) and less than 500 nM in test [2].
For `NC[C@]1(c2ccccc2F)[C@@H]2CCN(c3cnc4c(-c5cccc6ncccc56)n[nH]c4n3)C[C@@H]21` [Example 242, ((1S,6R,7R)-7-(2-fluorophenyl)-3-(3-(quinolin-5-yl)-1H-pyrazolo[3,4-b]pyrazin-6-yl)-3-azabicyclo[4.1.0]heptan-7-yl)methanamine], the IC50 is less than 1000 nM in test [1] (Homo sapiens, KYSE-520, 2 h) and less than 500 nM in test [2].
`Cn1cc(-c2ccc(-c3n[nH]c4nc(N5CC[C@@H]6[C@H](C5)[C@@]6(CN)c5ccccc5F)cnc34)c(Cl)c2)cn1` [Example 297, ((1S,6R,7R)-3-(3-(2-chloro-4-(1-methyl-1H-pyrazol-4-yl)phenyl)-1H-pyrazolo[3,4-b]pyrazin-6-yl)-7-(2-fluorophenyl)-3-azabicyclo[4.1.0]heptan-7-yl)methanamine]: the IC50 in test [1] (Homo sapiens, KYSE-520, 2 h) was less than 1000 nM; in test [2] it was less than 500 nM.
Consider `Cc1ccc2c(-c3n[nH]c4nc(N5CCC6C(C5)C6(CN)c5cc(C)on5)cnc34)cccc2n1` (stereo not drawn) [Example 25, (7-(5-methylisoxazol-3-yl)-3-(3-(2-methylquinolin-5-yl)-1H-pyrazolo[3,4-b]pyrazin-6-yl)-3-azabicyclo[4.1.0]heptan-7-yl)methanamine], for which the IC50 in test [1] (Homo sapiens, KYSE-520, 2 h) was less than 1000 nM; in test [2], less than 500 nM.
With `Cc1cc(C2(CN)C3CCN(c4cnc5c(N6CCCc7ncccc76)n[nH]c5n4)CC32)no1` (stereo not drawn) [Example 60, (3-(3-(3,4-dihydro-1,5-naphthyridin-1(2H)-yl)-1H-pyrazolo[3,4-b]pyrazin-6-yl)-7-(5-methylisoxazol-3-yl)-3-azabicyclo[4.1.0]heptan-7-yl)methanamine], the IC50 in test [1] (Homo sapiens, KYSE-520, 2 h) is less than 1000 nM; in test [2] it was less than 500 nM.
For the compound `COc1ccc2cc(-c3n[nH]c4nc(N5CC[C@@H]6[C@H](C5)[C@@]6(CN)c5cc(C)on5)cnc34)cnc2c1` [Example 151, ((1S,6R,7S)-3-(3-(7-methoxyquinolin-3-yl)-1H-pyrazolo[3,4-b]pyrazin-6-yl)-7-(5-methylisoxazol-3-yl)-3-azabicyclo[4.1.0]heptan-7-yl)methanamine], the IC50 in test [1] (Homo sapiens, KYSE-520, 2 h) is less than 1000 nM; in test [2], less than 500 nM.
For the compound `NC[C@]1(c2ccccc2F)[C@@H]2CCN(c3cnc4c(-c5ccc6[nH]ccc6c5Cl)n[nH]c4n3)C[C@@H]21` [Example 405, ((1S,6R,7R)-3-(3-(4-chloro-1H-indol-5-yl)-1H-pyrazolo[3,4-b]pyrazin-6-yl)-7-(2-fluorophenyl)-3-azabicyclo[4.1.0]heptan-7-yl)methanamine], the IC50 in test [1] (Homo sapiens, KYSE-520, 2 h) is less than 1000 nM; in test [2], less than 500 nM.
As to `COc1nccc(-c2n[nH]c3nc(N4CC[C@@H]5[C@H](C4)[C@@]5(CN)c4ccccc4F)cnc23)c1Cl` [Example 500], the IC50 in test [1] is less than 1000 nM; in test [2] it was less than 500 nM.
As for `CNC(=O)c1ccc(-c2n[nH]c3nc(N4CC[C@@H]5[C@H](C4)[C@@]5(CN)c4cccc(F)c4F)cnc23)c2cccnc12` [Example 267, 5-(6-((1S,6R,7R)-7-(aminomethyl)-7-(2,3-difluorophenyl)-3-azabicyclo[4.1.0]heptan-3-yl)-1H-pyrazolo[3,4-b]pyrazin-3-yl)-N-methylquinoline-8-carboxamide], the IC50 was less than 1000 nM in test [1] (Homo sapiens, KYSE-520, 2 h) and less than 500 nM in test [2].
In the same order, the values of `NC[C@]1(c2ccccc2F)[C@@H]2CCN(c3cnc4c(-c5ccc6c(c5)CCN6)n[nH]c4n3)C[C@@H]21` [Example 312, ((1S,6R,7R)-7-(2-fluorophenyl)-3-(3-(indolin-5-yl)-1H-pyrazolo[3,4-b]pyrazin-6-yl)-3-azabicyclo[4.1.0]heptan-7-yl)methanamine] are less than 1000 nM and less than 500 nM.
On to `Cc1csc(C2(CN)[C@@H]3CN(c4cnc5c(-c6ccc7nn(CC#N)cc7c6Cl)n[nH]c5n4)C[C@@H]32)n1` (stereo partly drawn) [Example 478], for which the IC50 in test [1] is less than 1000 nM; in test [2], less than 500 nM.
For the compound `NCC1(c2ccc(F)cc2)C2CCN(c3cnc4c(-c5cccc(Cl)c5Cl)n[nH]c4n3)CC21` (stereo not drawn) [Example 10, (3-(3-(2,3-dichlorophenyl)-1H-pyrazolo[3,4-b]pyrazin-6-yl)-7-(4-fluorophenyl)-3-azabicyclo[4.1.0]heptan-7-yl)methanamine], the IC50 is less than 1000 nM in test [1] (Homo sapiens, KYSE-520, 2 h) and less than 500 nM in test [2].
As to `Cn1ccc2c(-c3n[nH]c4nc(N5CC[C@@H]6[C@H](C5)[C@@]6(CN)c5ccccc5F)cnc34)ccc(F)c2c1=O` [Example 315, 5-(6-((1S,6R,7R)-7-(aminomethyl)-7-(2-fluorophenyl)-3-azabicyclo[4.1.0]heptan-3-yl)-1H-pyrazolo[3,4-b]pyrazin-3-yl)-8-fluoro-2-methylisoquinolin-1(2H)-one], the IC50 is less than 1000 nM in test [1] (Homo sapiens, KYSE-520, 2 h) and less than 500 nM in test [2].
Regarding `NC[C@]1(c2ccccc2F)[C@@H]2CCN(c3cnc4c(-c5ccc6c(=O)[nH]ncc6c5Cl)n[nH]c4n3)C[C@@H]21` [Example 340], the IC50 is less than 1000 nM in test [1] and less than 500 nM in test [2].
In the case of `NC[C@]1(c2cc(F)ccc2F)[C@@H]2CCN(c3cnc(Sc4ccnc(C5CC5)c4Cl)c(N)n3)C[C@@H]21` [Example 430, 6-((1S,6R,7R)-7-(aminomethyl)-7-(2,5-difluorophenyl)-3-azabicyclo[4.1.0]heptan-3-yl)-3-((3-chloro-2-cyclopropylpyridin-4-yl)thio)pyrazin-2-amine], the IC50 in test [1] (Homo sapiens, KYSE-520, 2 h) is less than 1000 nM; in test [2] it was less than 500 nM.
With `NC[C@]1(c2ccccc2F)[C@@H]2CCN(c3cnc4c(-c5ccc(F)c6[nH]c(=O)ccc56)n[nH]c4n3)C[C@@H]21` [Example 236, 5-(6-((1S,6R,7R)-7-(aminomethyl)-7-(2-fluorophenyl)-3-azabicyclo[4.1.0]heptan-3-yl)-1H-pyrazolo[3,4-b]pyrazin-3-yl)-8-fluoroquinolin-2(1H)-one], the IC50 is less than 1000 nM in test [1] (Homo sapiens, KYSE-520, 2 h) and less than 500 nM in test [2].
In the same order, the values of `Cc1c(-c2n[nH]c3nc(N4CC[C@@H]5[C@H](C4)[C@@]5(CN)c4c(F)cccc4F)cnc23)ccc2nn(C)cc12` [Example 106, ((1S,6R,7R)-7-(2,6-difluorophenyl)-3-(3-(2,4-dimethyl-2H-indazol-5-yl)-1H-pyrazolo[3,4-b]pyrazin-6-yl)-3-azabicyclo[4.1.0]heptan-7-yl)methanamine] are less than 1000 nM and less than 500 nM.
